Reference: patent US11992011B2, “Compounds for controlling plant pathogens” (VIB VZW, priority 2017, dated 2024)

Legend:
Meloidogyne graminicola [1] = assay: Meloidogyne graminicola infection in rice, first experiment (Example 3); type: in vivo; conditions: infected rice, 100 μM, median (IQR), n = 8; for Gall number: harvested twelve days after infection; for Galls per AR: per adventitious root
Experimental: Seeds were germinated on wet tissue paper at 30° C. in the dark for three days, followed by transfer to individual PVC tubes (for nematode infection) containing SAP (Reversat et al., 1999). SAP (sand-absorbent polymer) is a mixture of fine silica sand and ultra-absorbent acrylic copolymer (DCM AquaPerla, DSM, Grobbendonk, Belgium) in a ratio of 1 kg sand to 1.5 g of dry copolymer.
Before use, each tube was washed in soapy water and dried in an oven at 70° C. for two days. […] The first two days after transfer, the tubes were covered with a polyethylene film (Saran Film, Dow Chemicals, Midland, USA) to prevent excessive evaporation. Seedlings were watered three times per week with 8 ml of Hoagland solution (Hoagland, 1938).
M. graminicola was extracted from infected Echinocloa crus-galli roots grown in potting soil at 25° C. Roots were washed until most soil was removed, after which they were cut into short fragments (with special care taken to cut open any outwardly visible galls). The cut material was put in […] pore diameter sieves which were put into a tap water bath at room temperature for three days. The water was then poured over a […] mesh sieve. The sieve surface was washed with approximately 50 ml of non-demineralized water, which was collected into a beaker before it could seep through the sieve.
The number of nematodes in five 100 μl samples taken from the nematode suspension was counted under a stereo microscope and averaged to determine inoculum concentration. Each plant (grown per the protocol outlined in the previous section) was then inoculated by injecting the desired number of nematodes in the SAP surrounding the root system using a micro-pipette.
(§1) Infection experiments with M. graminicola were performed by inoculating host plants 14 days after transfer to SAP by introducing the desired amount of J2 juveniles next to the root system using a micro pipette. Rice plants (cv. Nipponbare or Kitaake) were inoculated with 250 J2 juveniles per plant; wheat plants (cv. Sahara) were inoculated with 600 J2 juveniles per plant. Plants were harvested 14 days after inoculation. At this point, the plants were phenotyped by measuring the shoot and root length with a ruler, counting the number of adventitious roots and in some experiments by measuring leaf area using the EasyLeafArea software (Easlon and Bloom, 2014) and by determining shoot dry mass after 72 hours of drying in an oven at 70° C. Root systems were then stained in acid fuchsine as described in (Byrd et al., 1983) and left to destain in glycerol with 1 ml/l fuming HCl added for approximately ten days. The number of galls and nematodes was then counted using a binocular microscope.
Rice plants were germinated for three days, transferred to SAP and grown for twelve days. After twelve days, 240 M. graminicola J2 nematodes on average were added to each plant. Plants were harvested twelve days after infection and roots were stained with acid fuchsine to visualize galls and nematodes.

Meloidogyne graminicola [2] = assay: M. graminicola infection in wild type and OsWRKY45 knockdown rice (Example 16); type: in vivo; conditions: for Likelihood of necrosis / Fraction of empty galls / Fraction of small galls / Gall number / Galls per AR: MDCA/PA spray; for Fraction of empty galls / Fraction of small galls / Gall number / Galls per AR: median (interquartile range); for change of number of galls per root system, WRKY45 treated vs WRKY45 control: WRKY45-RNAi rice; for change of number of galls per root system, WT treated vs WT+CON: wild type rice
Experimental: as §1
To test the potential involvement of salicylic acid (SA) in MDCA/PA defense enhancement the response of MDCA/PA-treated RNAi-knockdown mutants in OsWRKY45 to nematode infection was examined. The OsWRKY proteins form a family of rice transcription factors that regulate a broad range of cellular processes, most of which are related to abiotic and biotic stress response (Jimmy and Babu, 2015). In keeping with their important role in defense, many OsWRKY genes are controlled by the plant defense hormones jasmonic acid and SA (Ryu et al., 2006; Jimmy and Babu, 2015).
OsWRKY45 is a master regulator of SA-induced defense responses. Knockdown lines in this gene are useful for testing whether MDCA/PA defense enhancement depends on SA signaling, as OsWRKY45 (unlike most other defense genes) is believed to be triggered only by SA (Ryu et al. 2006; incorporated by reference).
Galls were counted and classified by their size and by whether they were empty or not. The presence or absence of necrosis in the root system was also recorded.

OsWRKY45 = assay: qRT-PCR in rice roots, OsWRKY45 (Example 19); type: in vivo, Oryza sativa; conditions: rice cv. Bomba root tissue; 100 μM; harvested 13 days after germination; N=3 pools
Experimental: After quality control, qPCR was carried out.

OsC4H = assay: qRT-PCR in rice roots, OsC4H (Example 19); conditions: rice cv. Bomba root tissue; 100 μM; harvested 13 days after germination; N=3 pools
[3] = test system: Fusarium proliferatum (isolate Fpr18); assay: Onion seedling emergence with PA seed coating, Fusarium proliferatum (Example 12); type: in vivo; conditions: onion seeds with 300 μM PA coating vs mock coating
Experimental: Seed coatings were applied by dipping seeds in a coating solution containing 20 g/I high viscosity carboxymethylcellulose (Sigma-Aldrich, Saint Louis, USA) in distilled water as well as 300 μM of the target compound. Seeds were then dried overnight at room temperature.
Onion seeds were coated with a 300 μM PA solution as outlined in the chemical treatments section. F. oxysporum (isolate Foc26), F. solani (isolate Fso18) and F. proliferatum (isolate Fpr18) were originally extracted from Vietnamese onion fields. Inoculum was obtained as described in the fungal culture section. The inoculum was diluted to a concentration of 1.0×10^7 spores per ml with sterile PBS buffer. The coated seeds were then soaked in the spore solution for one hour. To avoid excessive PA leaching from the PA coating, 100 μM of PA was added to the spore solution.
After soaking in the PA solution, seeds were left to dry for thirty minutes. Twenty seeds were then sowed per pot in potting soil; three pots were used per treatment and per fungal isolate (for a total of 60 seeds per treatment-isolate combination). The pots were covered in cling film and left on a window sill at room temperature. After eight and ten days, the number of germinated seedlings per pot was counted.
Germination experiments were analyzed by fitting a three-parameter log-logistic model as implemented in the R drc package.

[4] = test system: Alternaria solani, Botrytis cinerea R16, Fusarium graminearum PH1 and Fusarium graminearum GFP; type: cell-based

Row | Structure (SMILES) | Gall number (Meloidogyne graminicola [1]) | Empty galls (Meloidogyne graminicola [1]) | Fraction of small galls (Meloidogyne graminicola [1]) | Number of J2 (Meloidogyne graminicola [1]) | Number of J3 + J4 (Meloidogyne graminicola [1]) | Number of adults (with eggs) (Meloidogyne graminicola [1]) | Number of adults (without eggs) (Meloidogyne graminicola [1]) | Total nematodes (Meloidogyne graminicola [1]) | Galls per AR (Meloidogyne graminicola [1]) | Likelihood of necrosis (Meloidogyne graminicola [2]; WRKY45-RNAi knockdown rice) | Fraction of empty galls (Meloidogyne graminicola [2]; WRKY45-RNAi knockdown rice) | Fraction of small galls (Meloidogyne graminicola [2]; WRKY45-RNAi knockdown rice) | Gall number (Meloidogyne graminicola [2]; WRKY45-RNAi knockdown rice) | Galls per AR (Meloidogyne graminicola [2]; WRKY45-RNAi knockdown rice) | change of number of galls per root system, WRKY45 treated vs WRKY45 control (Meloidogyne graminicola [2]) | Likelihood of necrosis (Meloidogyne graminicola [2]; Wild type rice) | Fraction of empty galls (Meloidogyne graminicola [2]; Wild type rice) | Fraction of small galls (Meloidogyne graminicola [2]; Wild type rice) | Gall number (Meloidogyne graminicola [2]; Wild type rice) | Galls per AR (Meloidogyne graminicola [2]; Wild type rice) | other results
1 | O=C(O)/C=C/c1ccc2c(c1)OCO2 [MDCA, 3,4-methylenedioxycinnamic acid] | 11.5 (IQR = 3.3) | 0.5 (IQR = 1.3) | 0.84 (IQR = 0.13) | 7.5 (IQR = 8.0) | 8.0 (IQR = 8.3) | 3.0 (IQR = 13.3) | 20.0 (IQR = 7.3) | 41.5 (IQR = 14.3) | 0.78 (IQR = 0.22) | 0.50 ± 0.53 | 0.09 (0.01) | 0.94 (0.03) | 52.0 (10.8) | 3.3 (0.7) | −23% | 0.63 ± 0.52 | 0.02 (0.04) | 0.86 (0.07) | 36.5 (10.3) | 2.3 (0.6) | change of number of galls per root system, WT treated vs WT+CON (Meloidogyne graminicola [2]): −42%; Fold change vs. control, OsWRKY45 expression (OsWRKY45): 1.67; Fold change vs. control, OsC4H expression (OsC4H): 3.73
2 | O=C(O)c1ccc2c(c1)OCO2 [PA, Piperonylic acid] | 12.5 (IQR = 4.0) | 0.0 (IQR = 1.0) | 0.76 (IQR = 0.08) | 9.0 (IQR = 8.3) | 5.0 (IQR = 5.5) | 0.5 (IQR = 1.3) | 19.5 (IQR = 11.8) | 32.5 (IQR = 17.8) | 0.83 (IQR = 0.29) | 0.60 ± 0.52 | 0.02 (0.03) | 0.91 (0.05) | 39.0 (20.3) | 2.2 (0.8) | −41% | 0.78 ± 0.44 | 0.03 (0.03) | 0.93 (0.06) | 33.0 (10.0) | 1.8 (0.5) | improvement of seedling emergence [3]: +79%; germination of fungal spores on agar [4]: germinated normally; mycelium growth compared to control agar [4]: slight (species-specific) growth retardation; change of number of galls per root system, WT treated vs WT+CON (Meloidogyne graminicola [2]): −42%; Fold change vs. control, OsWRKY45 expression (OsWRKY45): 1.30; Fold change vs. control, OsC4H expression (OsC4H): 9.87
